Laboratory results reported in patent publication US20110178171A1, “COMPOUNDS FOR CANCER THERAPY” (China Medical University, priority 2010, published 2011).

Assays:
LNCaP cells [1] = assay: MTT growth inhibition assay, LNCaP; conditions: for Viability (%) LNCaP: 24 h (Table 2); for Viability (%) / IC50: LNCaP; for Viability (%): 24 h (Table 1); for IC50: androgen-dependent prostate adenocarcinoma
Procedure: (§1) The LNCaP (androgen-sensitive), PC3 (androgen in-dependent), human prostate cancer and normal human fibroblast 3T3 were obtained from American Type Culture Collection (Manassas, Va.) were maintained with RPMI 1640 medium containing 10% FBS and […] each of penicillin and streptomycin at […] in a humidified atmosphere with 5% CO2.
(§2) The viability of the cells after treated with various chemicals was evaluated using MTT assay preformed in triplicate (Mosmann T. 1983. Rapid colorimetric assay for cellular growth and survival: application to proliferation and cytotoxicity assays”. Journal of immunological methods. 65 (1-2): 55-63). Briefly, the cancer cells (5×10^3) were incubated in 96-well plates containing […] of the culture medium. Cells were permitted to adhere for 12-18 h then washed with phosphate buffered saline (PBS). Solutions were always prepared fresh by dissolving 0.2% DMSO or K8 in culture medium and added to various kind of tumor. After 48 h of exposure, K8 containing medium was removed, washed with PBS and replaced by fresh medium. The cells in each well were then incubated in culture medium with […] MTT for 4 h. After the medium were removed, […] of DMSO and […] of glycine buffer (0.1 M glycine, 0.1 M NaCl, pH 10.5) were added to each well. Absorbance at 570 nm of the maximum was detected by a PowerWave X Microplate ELISA Reader (Bio-TeK Instruments, Winoski, Vt.). The absorbance for DMSO treated cells was considered as 100%. The results were determined by three independent experiments.
Cytotoxicity of K8 (Isochaihulactone) on LNCaP cells was examined in the manner described above. The cells were treated with KS (Isochaihulactone), its Z-form, or its E-form of different concentrations ranging from 2.5 to 20 μM for 24 h.
Cytotoxicities of Z-K8 (Isochaihulactone) on LNCaP (AR-dependent), and PC3 (AR-independent) tumor cell line were examined in the manner described above. The cells were treated with the Z- or E-form K8 (Isochaihulactone) of different concentrations ranging from 0.3125 to 5 μM for 24 h.

PC3 cells = assay: MTT growth inhibition assay, PC3; assay type: cell-based, human; conditions: for Viability (%) PC-3: 24 h (Table 2)
Procedure: as §1, §2
Cytotoxicities of Z-K8 (Isochaihulactone) on LNCaP (AR-dependent), and PC3 (AR-independent) tumor cell line were examined in the manner described above. […]

LNCaP cells [2] = assay: Cell cycle analysis by flow cytometry; assay type: cell-based, human; conditions: 24 h
Procedure: The cell cycle was determined by flow cytometry with DNA staining to reveal the total amount of DNA. Approximately 5×10^5 of cells were incubated in various concentration of isochaihulactone for the indicated time. Cells were harvested by treating the cells with trypsin/EDTA. The cells were collected, washed with PBS, fixed with cold 70% ethanol overnight, and then stained with a solution containing […] PI, 10 mg/ml RNase A, and 0.1% Triton X-100 for 1 h in the dark. The cells will then pass through FACScan flow cytometer (equipped with a 488-nmargon laser) to measure the DNA content. The data was obtained and analyzed with CellQuest 3.0.1 (Becton Dickinson, Franklin Lakes, N.J.) and ModFitLT V2.0 software. The results are shown Table 4 and FIG. 4.
Assays were carried out to examine the effect of Z-K8 in inducing G2/M phase arrest and apoptosis in LNCaP cells. Briefly, the cells were treated with different concentrations of Z-K8 (ranging from 0.25 to 2 μM) for 24 h. The cell cycle analysis was done according to the method described above. As shown in FIG. 4 and Table 4, Z-K8 induced cell cycle G2/M arrest in LNCaP cells.

AR = assay: Immunohistochemical staining of xenograft tumors, AR; assay type: in vivo; conditions: mice treated with 30 mg/kg (FIG. 8B)
Procedure: Mice xenograft tissue samples were fixed in 10% formalin and embedded in paraffin. After routine rehydration, antigen retrieval and blocking, the sections were incubated in the primary antibody at 4° C. overnight. The primary antibody was recognized by the biotinylated secondary antibody and visualized by vectastain avidin-biotin complex peroxidase system (ABC kit) as well as peroxidase substrate 3,3′-diaminobenzidine kit (DAB kit).
Immunohistochemical staining was conducted using a cleaved caspase-3-specific antibody. […] Similar staining was carried our using an AR-specific antibody.

SMILES: COc1cc(/C=C2\C(=O)OCC2Cc2ccc3c(c2)OCO3)cc(OC)c1OC (racemic) [Z-K8, Racemic (Z)-β-(3′,4′-Methylenedioxybenzyl)-α-(3′,4′,5′-trimethoxybenzylidene)-γ-butyrolactone]
- Viability (%) LNCaP (LNCaP cells [1]; 0.625 μM): 68.9%
- Viability (%) LNCaP (LNCaP cells [1]; 1.25 μM): 43.7%
- Viability (%) LNCaP (LNCaP cells [1]; 2.5 μM): 21.7%
- Viability (%) LNCaP (LNCaP cells [1]; 5 μM): 18.4%
- Viability (%) LNCaP (LNCaP cells [1]; 10 μM): 16.9%
- Viability (%) (LNCaP cells [1]; 2.5 μM): 33.0%
- Viability (%) (LNCaP cells [1]; 5 μM): 18.7%
- Viability (%) (LNCaP cells [1]; 10 μM): 17.2%
- Viability (%) (LNCaP cells [1]; 20 μM): 16.1%
- IC50 (LNCaP cells [1]): 1.25 µM
- IC50 (LNCaP cells [1]; listed as Z-form of K8): 1 µM
- Viability (%) PC-3 (PC3 cells; 0.625 μM): 92.0%
- Viability (%) PC-3 (PC3 cells; 1.25 μM): 84.5%
- Viability (%) PC-3 (PC3 cells; 2.5 μM): 74.9%
- Viability (%) PC-3 (PC3 cells; 5 μM): 44.9%
- Viability (%) PC-3 (PC3 cells; 10 μM): 28.3%
- IC50 (PC3 cells; PC3, androgen-independent prostate adenocarcinoma): 100 µM
- Cells in phase (%) G0/G1 (LNCaP cells [2]; 0.25 μM): 63.56%
- Cells in phase (%) G2/M (LNCaP cells [2]; 0.25 μM): 18.35%
- Cells in phase (%) S (LNCaP cells [2]; 0.25 μM): 5.42%
- Cells in phase (%) Sub-G1 (LNCaP cells [2]; 0.25 μM): 0.48%
- Cells in phase (%) G0/G1 (LNCaP cells [2]; 0.5 μM): 48.30%
- Cells in phase (%) G2/M (LNCaP cells [2]; 0.5 μM): 24.99%
- Cells in phase (%) S (LNCaP cells [2]; 0.5 μM): 6.61%
- Cells in phase (%) Sub-G1 (LNCaP cells [2]; 0.5 μM): 3.24%
- Cells in phase (%) G0/G1 (LNCaP cells [2]; 1 μM): 57.27%
- Cells in phase (%) G2/M (LNCaP cells [2]; 1 μM): 10.16%
- Cells in phase (%) S (LNCaP cells [2]; 1 μM): 4.70%
- Cells in phase (%) Sub-G1 (LNCaP cells [2]; 1 μM): 8.19%
- Cells in phase (%) G0/G1 (LNCaP cells [2]; 2 μM): 22.25%
- Cells in phase (%) G2/M (LNCaP cells [2]; 2 μM): 43.92%
- Cells in phase (%) S (LNCaP cells [2]; 2 μM): 8.39%
- Cells in phase (%) Sub-G1 (LNCaP cells [2]; 2 μM): 5.73%
- expression of AR in tumors (IHC) versus control (AR): weaker
